Structures are written as SMILES.

Drawing on the METLIN SMRT retention time set (Domingo-Almenara et al. 2019), this text covers RP-LC retention time for 81 molecules.

The data set can be described thus: gradient 5% acetonitrile 3 min, to 50% in 2 min, to 85% in 15 min, held 3 min, 100 µL/min. Particulars: column: Zorbax Extend-C18 2.1 x 50 mm; eluents: water / acetonitrile, 0.1% formic acid. In a few lines:
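Values are retention times taken from adduct peaks that software picked and an analyst inspected. The pure standards were run as mixtures of ~100 molecules on HPLC linked to a quadrupole time-of-flight mass spectrometer, in positive and negative ionization mode. A Zorbax Extend-C18 column (2.1 × 50 mm, 1.8 μm) was used at 100 μL/min with water and acetonitrile, each including 0.1% formic acid.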
Regarding `CCc1cccc(NC(=O)Cn2nc3cc(C)nc(Nc4ccccc4C)n3c2=O)c1`, the RP-LC retention time came out at 711 s.

`COc1ccc(C2(C(=O)N3CCC4(CC3)C(OC)C(=O)N4c3cccc(F)c3)CC2)cc1` (stereo unspecified) came in with an RP-LC retention time of 901 s.

`O=C(NC1CCCCC1)c1ccc2c(c1)N(Cc1ccccc1)C(=O)CO2` had an RP-LC retention time of 921 s.

As for `Cc1nc(-c2nc(-c3cccs3)cs2)cn1CC(=O)NCc1ccccc1`, the RP-LC retention time turned out to be 760 s.

For `CCn1ccc(NC(=O)Nc2cccc(C)c2)n1`, the RP-LC retention time turned out to be 738 s.

Molecule `Cc1scc2nc(C(=O)NCc3ccc(F)cc3)nc(N(C)C)c12` had an RP-LC retention time of 780 s.

On to `O=C(Cn1ccc2ccc(N3CCOCC3)nc21)NCc1ccccc1Br`, for which the RP-LC retention time amounted to 886 s.

`COc1ccc(OC)c(NC(=O)CN2C(=O)C(C)(C)c3cc(C)ccc32)c1` showed an RP-LC retention time of 915 s.

In turn, `CC(C)c1ccc(NC(=O)c2cn(C)nc2S(=O)(=O)N2CCSCC2)cc1` showed an RP-LC retention time of 944 s.

Molecule `Cn1cc(CCNC(=O)c2ccccc2C(F)(F)F)c2cccnc21` returned an RP-LC retention time of 700 s.

In turn, `Nc1nc(SCc2ccccc2Cl)c2[nH]cnc2n1` had an RP-LC retention time of 680 s.

In turn, `CN(C)S(=O)(=O)c1ccc(-c2nnc(C(=O)N3CCC(Cc4ccccc4)CC3)o2)cc1` had an RP-LC retention time of 1080 s.

With `O=C(NCc1ccccc1F)c1ccc2ncnc(N3CCCC3)c2c1`, the RP-LC retention time was found to be 623 s.

`CCc1ccc(C2=C(C)C(N3CCCN(C(=O)C(C)(C)CC)CC3)=NS2(=O)=O)cc1` registered an RP-LC retention time of 935 s.

For the molecule `CCCCNC(=O)Cn1c(CC)nc2c(c1=O)CN(Cc1ccccc1)CC2`, the RP-LC retention time is 605 s.

The molecule `COc1cccc(C(=O)N2CCC3(CC2)NC(=O)c2cc(F)ccc2N3C)c1` had an RP-LC retention time of 762 s.

`O=C(NC1(c2nc(-c3ccncc3)no2)CCCCC1)c1ccccc1F` came in with an RP-LC retention time of 911 s.

`Cc1ccc(-c2cn3c(CC(=O)Nc4ccc(C)c(F)c4)csc3n2)cc1C` registered an RP-LC retention time of 933 s.

The molecule `COc1ccc(-c2nnc(N3CCC(C(=O)NCc4cccs4)CC3)o2)cc1` had an RP-LC retention time of 767 s.

`CCCc1nc(-c2c(C)cc(C)nc2NC(=O)c2ccccc2Br)no1` had an RP-LC retention time of 927 s.

Turning to `COc1ccc(NC(=O)Cn2c(=O)n(-c3ccc(F)cc3)c(=O)c3c2cc(C)n3C)c(OC)c1`, the RP-LC retention time amounted to 832 s.

For `Cc1ccc(NC(=O)CC2SC3=NCCN3C2=O)cc1` (stereo unspecified), the RP-LC retention time came to 578 s.

For `Cc1ccc2ncc(C(=O)NCCCOC(C)C)c(=O)n2c1`, the RP-LC retention time came to 656 s.

Take `O=C1C(=O)N(C2CCN(C(=O)c3ccc(Br)o3)CC2)CCN1Cc1ccccc1`: the RP-LC retention time was determined as 706 s.

In the case of `COc1cc(OC)cc(N2C=C(C#N)S(=O)(=O)c3ccccc32)c1`, the RP-LC retention time is 910 s.

Molecule `Cc1sc(-c2noc(C(C)C)n2)cc1S(=O)(=O)N1CCC(C(=O)NC2CCCCC2)CC1` showed an RP-LC retention time of 1090 s.

Molecule `Nc1ccc(-c2nc3nc(N)nc(N)c3nc2-c2ccc(N)cc2)cc1` yielded an RP-LC retention time of 596 s.

Turning to `CCCc1ccc(S(=O)(=O)N2CCC(n3cnc4ccc(C)cc4c3=O)CC2)cc1`, the RP-LC retention time was determined as 1100 s.

Regarding `c1ccc(C2CN3CCSC3=N2)cc1` (stereo unspecified), the RP-LC retention time is 618 s.

For the molecule `CC(C)c1ccc(NC(=O)Cn2cccc2-c2nnc(C3CCC3)o2)cc1`, the RP-LC retention time came out at 1060 s.

On to `CCn1c(=O)c2ccccc2n(Cc2nc(-c3ccc(Cl)c(F)c3)no2)c1=O`, for which the RP-LC retention time turned out to be 1140 s.

As for `O=C(NCc1nnc(SCc2ccccn2)o1)c1ccccc1`, the RP-LC retention time is 586 s.

`CCN1CCN(CCCNC(=O)c2cc(-c3ccc(C)c(C)c3)[nH]c2C)CC1` came in with an RP-LC retention time of 595 s.

In turn, `Cn1nc(CNC(=O)c2ccc(Br)cc2)c2ccccc21` returned an RP-LC retention time of 840 s.

Take `CCc1noc(NC(C)=O)c1-c1ccc(OC)c(S(=O)(=O)Nc2ccc(C)c(Cl)c2)c1`: the RP-LC retention time came to 1300 s.

`CCc1nc2cccnc2n1CCN1CCN(C(=O)Nc2ccc3c(c2)OCCO3)CC1`: the RP-LC retention time amounted to 590 s.

In turn, `CC(C)CN1CCN(Cc2nc(-c3ccc(N4CCCCC4)nc3)no2)CC1` had an RP-LC retention time of 596 s.

As to `O=C(c1ccco1)N1CCCC(c2nnc(-c3cccs3)o2)C1` (stereo unspecified), the RP-LC retention time is 690 s.

`C1=CC2(C=C1)OC21CCC2(C=CC3(C2)OC3C2CCCCC2)CC1` (stereo unspecified): the RP-LC retention time worked out at 798 s.

In turn, `COc1ccc(N2CCN(C(=O)CN3CCN(Cc4ccccc4)C3=O)CC2)cc1` registered an RP-LC retention time of 714 s.

`CN1CCN(CCCNC(=O)c2ccccc2NC(=O)C2=CSCCO2)CC1` displayed an RP-LC retention time of 878 s.

The molecule `Cc1ccc(-c2csc(-n3nc(C)c(CC(=O)N4CCCC4)c3C)n2)cc1` came in with an RP-LC retention time of 1090 s.

For the molecule `Cc1ccc(S(=O)(=O)NCCn2c(C)cnc2C2CCC2)c(C)c1`, the RP-LC retention time was 675 s.

On to `Cc1ccc(C(O)Cn2ccn3nc(-c4ccc(F)cc4)cc3c2=O)cc1C` (stereo unspecified), for which the RP-LC retention time turned out to be 1020 s.

Turning to `CCCNC(=O)C1CCCN(c2ccc(=O)n(-c3cccc(F)c3)n2)C1` (stereo unspecified), the RP-LC retention time came out at 699 s.

`Cc1noc(C)c1CN1CCN(C(=O)C(C)(C)Oc2ccc(Cl)cc2)CC1` displayed an RP-LC retention time of 606 s.

`c1ccc(-c2nnc3sc(-c4ccc5c(c4)OCO5)nn23)nc1` returned an RP-LC retention time of 759 s.

As for `COc1cc([C@@H]2c3cc4c(cc3[C@H](O)C3COC(=O)[C@@H]32)OCO4)cc(OC)c1OC` (stereo partly specified), the RP-LC retention time amounted to 811 s.

`Cc1cc(=O)n(CC(=O)Nc2cc(F)ccc2F)c(N2CCCCC2)n1` came in with an RP-LC retention time of 708 s.

The molecule `CCOC(=O)C1=C(C)NC(=O)NC1c1cn(-c2ccccc2)nc1-c1ccc(OCC)cc1` (stereo unspecified) gave an RP-LC retention time of 946 s.

For the molecule `COc1ccc(OC)c(-c2csc(-c3nnn(-c4ccccc4)c3N)n2)c1`, the RP-LC retention time was determined as 1080 s.

For `COc1ccc(NC(=O)Nc2c(-c3ccncc3)[nH]c3ccc(F)cc23)c(OC)c1`, the RP-LC retention time came to 683 s.

`CCOc1ccc(Cl)cc1S(=O)(=O)N1CCC(C(=O)NC2CCCC2)CC1` returned an RP-LC retention time of 916 s.

Molecule `CN(CC1CCOC1)C(=O)c1ccc(F)c(Cl)c1` (stereo unspecified) returned an RP-LC retention time of 724 s.

Take `Cc1cccc(C)c1NC(=O)CN1CCCC1=O`: the RP-LC retention time is 697 s.

On to `O=C(Nc1c(-c2ccccc2)nc2ccccn12)c1ccc2ccccc2c1`, for which the RP-LC retention time was 720 s.

The molecule `CCN(CC)S(=O)(=O)c1ccc2c(c1)N(CC(=O)NCCCOC(C)C)C(=O)C1CCCCN21` (stereo unspecified) returned an RP-LC retention time of 907 s.

Take `Cc1ccc(C(=O)NCc2ccc(-n3ccnc3)cc2)s1`: the RP-LC retention time stood at 602 s.

Molecule `COc1cccc(CNC(=O)C2(C)CCCN(C(=O)Nc3ccc(Br)cc3)C2)c1` (stereo unspecified) showed an RP-LC retention time of 969 s.

Regarding `CC(C)(C)c1ccc(OCC(=O)Nc2ccnn2Cc2ccco2)cc1`, the RP-LC retention time was determined as 1010 s.

Molecule `COc1ccc(NC2CS(=O)(=O)CC2O)cc1` (stereo unspecified) had an RP-LC retention time of 592 s.

As to `CCC1CN(C(=O)N2CCC(C(=O)NCCN3CCCC3)CC2)c2ccccc2O1` (stereo unspecified), the RP-LC retention time came to 620 s.

Molecule `O=C(CCc1c(-c2ccc(Br)cc2)nc2ccccn12)NCCN1CCCC1` returned an RP-LC retention time of 567 s.

For `COc1ccc(S(=O)(=O)N2CCCC(C(=O)NCc3ccccn3)C2)cc1Cl` (stereo unspecified), the RP-LC retention time stood at 838 s.

`Cc1ccc(C(=O)N2CCN(S(=O)(=O)c3cc(-c4noc(C5CCC5)n4)cs3)CC2)s1` registered an RP-LC retention time of 1060 s.

In the case of `Cc1ccsc1C(=O)N1CCc2nn(C)c(=O)n2CC1`, the RP-LC retention time was found to be 610 s.

The molecule `Cc1nc(Nc2ccc(F)cn2)sc1C(=O)NCCc1ccc(Cl)cc1` displayed an RP-LC retention time of 936 s.

With `O=C(Nc1cccc(Cl)c1F)N1CCc2nc[nH]c2C1`, the RP-LC retention time was found to be 589 s.

Regarding `Cc1noc([C@@H]2CC(F)(F)CN2C(=O)c2cocn2)n1`, the RP-LC retention time came to 667 s.

The molecule `Nc1nc(N)c2ncn(-c3ccccc3)c2n1` gave an RP-LC retention time of 584 s.

Take `O=C(c1ccoc1)N1CCc2cc(-c3csc(C4CC4)n3)ccc21`: the RP-LC retention time is 1060 s.

`CCn1cc(CCN2CCC(C(=O)N(C)C)CC2)c2cccnc21` returned an RP-LC retention time of 566 s.

With `COc1ccc(-n2c(CN3CCN(C(=O)NC4CCCCC4)CC3)nc3cccnc32)cc1`, the RP-LC retention time came out at 668 s.

Consider `Cn1cccc1C(=O)C(=O)Nc1ccc(Cl)cc1F`, for which the RP-LC retention time turned out to be 1080 s.

`CCCCN(CC)Cc1ccc(CNC(=O)C2CCCN(c3nnc(N4CCCC4=O)s3)C2)o1` (stereo unspecified) registered an RP-LC retention time of 611 s.

In turn, `CCSc1nnc2c(n1)OC(c1cccn1C)N(C(C)=O)c1ccccc1-2` (stereo unspecified) returned an RP-LC retention time of 788 s.

In turn, `Cc1cccc(C)c1OCC(=O)c1ccc2c(c1)N(CCCC(=O)NCC1CCCO1)C(=O)CO2` (stereo unspecified) yielded an RP-LC retention time of 803 s.

Take `Cc1ccc(NS(=O)(=O)c2cc(-c3[nH]ncc3C(=O)N3CCOCC3)oc2C)c(C)c1`: the RP-LC retention time came out at 721 s.

For `O=C(Cn1nc2n(c1=O)CCCCC2)Nc1cccc(F)c1`, the RP-LC retention time is 701 s.

In the case of `COc1ccc(CNC(=O)N2CC(c3nc(C)no3)C3(CCOCC3)C2)cc1` (stereo unspecified), the RP-LC retention time was 680 s.

With `CCOc1cccc(-c2noc(CN3C(=O)C(C)Oc4ccccc43)n2)c1` (stereo unspecified), the RP-LC retention time amounted to 1140 s.
